Measurements as given in patent US11254690B2, “PTEFb inhibiting macrocyclic compounds” (BAYER AKTIENGESELLSCHAFT, priority 2017, dated 2022).

Legend:
Caco-2 cells = test: Proliferation assay, Caco-2; type: cell-based; details: Homo sapiens, Caco-2, 96 h; 4 days, crystal violet; read-out: Inhibition of Caco-2 cell proliferation IC50
Protocol: Cultivated tumour cells (HeLa, human cervical tumour cells, ATCC CCL-2; NCI-H460, human non-small cell lung carcinoma cells, ATCC HTB-177; DU 145, hormone-independent human prostate carcinoma cells, ATCC HTB-81; HeLa-MaTu-ADR, multidrug-resistant human cervical carcinoma cells, EPO-GmbH Berlin; Caco-2, human colorectal carcinoma cells, ATCC HTB-37; B16F10, mouse melanoma cells, ATCC CRL-6475) were plated at a density of 5,000 cells/well (DU145, HeLa-MaTu-ADR), 3,000 cells/well (NCI-H460, HeLa), 1,500 cells/well (Caco-2), or 1,000 cells/well (B16F10) in a 96-well multititer plate in 200 μL of their respective growth medium supplemented 10% fetal calf serum. After 24 hours, the cells of one plate (zero-point plate) were stained with crystal violet (see below), while the medium of the other plates was supplemented with the test substances in various concentrations (0 μM, as well as in the range of 0.0001-10 μM; the final concentration of the solvent dimethyl sulfoxide was adjusted to 0.1%) using a Hewlett-Packard HP D300 Digital Dispenser. The cells were incubated for 4 days in the presence of test substances. Cell proliferation was determined by staining the cells with crystal violet: the cells were fixed by adding 20 μl/measuring point of an 11% glutaric aldehyde solution for 15 minutes at room temperature. After three washing cycles of the fixed cells with water, the plates were dried at room temperature. The cells were stained by adding 100 μl/measuring point of a 0.1% crystal violet solution (pH 3.0). After three washing cycles of the stained cells with water, the plates were dried at room temperature. The dye was dissolved by adding 100 μl/measuring point of a 10% acetic acid solution. The extinction was determined by photometry at a wavelength of 595 nm. The change of cell number, in percent, was calculated by normalization of the measured values to the extinction values of the zero-point plate (=0%) and the extinction of the untreated ([…]) cells (=100%). The IC50 values (inhibitory concentration at 50% of maximal effect) were determined by means of a 4 parameter fit. A2780 human ovarian carcinoma cells (ECACC #93112519) and non-adherent MOLM-13 human acute myeloid leukemia cells (DSMZ ACC 554) were seeded at a density of 3,000 cell/well (A2780) or 5,000 cells/well (MOLM-13) in a 96-well multititer plate in 150 μL of growth medium supplemented 10% fetal calf serum. After 24 hours, cell viability of one plate (zero-point plate) was determined with the Cell Titre-Glo Luminescent Cell Viability Assay (Promega), while the medium of the other plates was supplemented with the test substances in various concentrations (0 μM, as well as in the range of 0.0001-10 μM; the final concentration of the solvent dimethyl sulfoxide was adjusted to 0.1%) using a Hewlett-Packard HP D300 Digital Dispenser. Cell viability was assessed after 72-hour exposure with the Cell Titre-Glo Luminescent Cell Viability Assay (Promega). IC50 values (inhibitory concentration at 50% of maximal effect) were determined by means of a 4 parameter fit on measurement data which were normalized to vehicle (DMSO) treated cells (=100%) and measurement readings taken immediately before compound exposure (=0%).

[1] = target: T1, human PTEFb (CDK9/Cyclin T1) (Homo sapiens, UniProt P50750); test: Surface Plasmon Resonance PTEFb; type: binding; details: SPR, 37° C.
T1 construct: purchased ProQinase, Freiburg, Germany
T1 sequence (P50750 whole entry): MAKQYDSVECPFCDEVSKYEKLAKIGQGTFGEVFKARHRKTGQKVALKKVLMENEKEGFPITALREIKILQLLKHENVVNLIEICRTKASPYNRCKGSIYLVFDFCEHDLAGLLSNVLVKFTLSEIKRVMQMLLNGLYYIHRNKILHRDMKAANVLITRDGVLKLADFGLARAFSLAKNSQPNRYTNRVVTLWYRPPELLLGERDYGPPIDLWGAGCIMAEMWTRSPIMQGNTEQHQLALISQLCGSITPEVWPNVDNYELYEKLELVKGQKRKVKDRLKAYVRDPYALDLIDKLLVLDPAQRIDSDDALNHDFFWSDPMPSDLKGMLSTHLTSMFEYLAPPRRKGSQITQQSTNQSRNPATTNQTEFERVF
T1 sequence (O60563 whole entry partner): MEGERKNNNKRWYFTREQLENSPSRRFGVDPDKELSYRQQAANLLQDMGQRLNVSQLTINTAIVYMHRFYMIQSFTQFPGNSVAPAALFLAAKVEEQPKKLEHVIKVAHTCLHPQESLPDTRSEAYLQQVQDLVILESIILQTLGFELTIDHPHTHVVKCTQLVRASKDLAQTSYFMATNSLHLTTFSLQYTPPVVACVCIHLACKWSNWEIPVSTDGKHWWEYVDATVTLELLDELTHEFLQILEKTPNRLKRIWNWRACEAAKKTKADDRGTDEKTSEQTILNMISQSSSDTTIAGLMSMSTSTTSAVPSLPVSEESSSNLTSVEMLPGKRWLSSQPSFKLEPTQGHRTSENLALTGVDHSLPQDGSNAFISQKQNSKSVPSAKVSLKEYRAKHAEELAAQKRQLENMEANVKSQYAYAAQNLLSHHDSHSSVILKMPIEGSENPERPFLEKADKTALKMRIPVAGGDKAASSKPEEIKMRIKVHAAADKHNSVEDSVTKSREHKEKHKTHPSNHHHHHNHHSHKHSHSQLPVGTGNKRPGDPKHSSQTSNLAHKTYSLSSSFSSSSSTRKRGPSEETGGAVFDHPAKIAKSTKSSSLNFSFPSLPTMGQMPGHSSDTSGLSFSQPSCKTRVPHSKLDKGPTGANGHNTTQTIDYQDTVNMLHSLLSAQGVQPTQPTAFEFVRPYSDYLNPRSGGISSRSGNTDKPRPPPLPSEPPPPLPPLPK
Source text: 8. Surface Plasmon Resonance PTEFb
The term “surface plasmon resonance”, as used herein, refers to an optical phenomenon that allows for the analysis of the reversible associations of biological molecules in real time within a biosensor matrix, for example using the Biacore® system (GE Healthcare Biosciences, Uppsala, Sweden). Biacore® uses the optical properties of surface plasmon resonance (SPR) to detect alterations in the refractive index of a buffer, which changes as molecules in solution interact with the target immobilized on the surface. In brief, proteins are covalently bound to the dextran matrix at a known concentration and a ligand for the protein is injected through the dextran matrix. Near infrared light, directed onto the opposite side of the sensor chip surface is reflected and also induces an evanescent wave in the gold film, which in turn, causes an intensity dip in the reflected light at a particular angle known as the resonance angle. If the refractive index of the sensor chip surface is altered (e.g. by compound binding to the bound protein) a shift occurs in the resonance angle. This angle shift can be measured.
The term “KD”, as used herein, is intended to refer to the equilibrium dissociation constant of a particular compound/target protein complex.
The term “koff”, as used herein, is intended to refer to the off-rate, i.e. the dissociation rate constant of a particular compound/target protein complex.
The term “target residence time”, as used herein, is intended to refer to the inverse of the rate of dissociation rate constant (1/koff) of a particular compound/target protein complex.
The ability of the compounds according to the invention to bind human PTEFb may be determined using surface plasmon resonance (SPR). KD values and koff values may be measured using a Biacore® T200 instrument (GE Healthcare, Uppsala, Sweden).
For SPR measurements, recombinant human PTEFb (CDK9/Cyclin T1 recombinant human active protein kinase purchased from ProQinase, Freiburg, Germany) is immobilized using standard amine coupling (Johnsson B et al, Anal Biochem. 1991 Nov. 1; 198(2):268-77). Briefly, carboxymethylated dextran biosensor chips (CM7, GE Healthcare) are activated with N-ethyl-N′-(3-dimethylaminopropyl)-carbodiimide hydrochloride (EDC) and N-hydroxysuccinimide (NHS) according to the supplier's instructions. Human PTEFb is diluted in 1×HBS-EP+ (GE Healthcare) and injected on the activated chip surface. Subsequently, a 1:1 solution of 1 M ethanolamine-HCl (GE Healthcare) and 1×HBS-EP is injected to block unreacted groups, resulting in approximately 4000 response units (RU) of immobilized protein. A reference surface is generated by treatment with NHS-EDC and ethanolamine-HCl. Compounds are dissolved in 100% dimethylsulfoxide (DMSO, Sigma-Aldrich, Germany) to a concentration of 10 mM and subsequently diluted in running buffer (1×HBS-EP+pH 7.4 [generated from HBS-EP+ Buffer 10× (GE Healthcare): 0.1 M HEPES, 1.5 M NaCl, 30 mM EDTA and 0.5% v/v Surfactant P20], 1% v/v DMSO). For kinetic measurements, serial dilutions of compound (0.78 nM up to 25 nM) are injected over immobilized protein. Binding kinetics is measured at 37° C. with a flow rate of 100 μl/min in running buffer. Compound concentrations are injected for 70 s followed by a dissociation time of 1100 s. The resulting sensorgrams are double-referenced against the reference surface as well as against blank injections.
The double-referenced sensorgrams are fit to a simple reversible Langmuir 1:1 reaction mechanism as implemented in the Biacore® T200 evaluation software 2.0 (GE Healthcare). In cases were full compound dissociation has not occurred at the end of the dissociation phase, the Rmax parameter (response at saturation) is fit as local variable. In all other cases, Rmax is fit as global variable.

IC50 (Caco-2 cells): 96 nM
residence time ([1]; 1/koff, * = arithmetic means, read-out: Target residence time): 75 min
Kd ([1]; * = arithmetic means of more than one value, read-out: Equilibrium dissociation constant KD): 1.2 nM
koff ([1]; * = arithmetic means, < = below what is resolvable, read-out: Dissociation rate constant koff): 0.00022 s⁻¹
Compound: CS(=N)(=O)Cc1cc2nc(c1)OCCCCOc1cc(ccc1F)-c1cc(ncc1F)N2 (racemic) [Example 2, (rac)-3,20-difluoro-10-[(S-methylsulfonimidoyl)methyl]-13,18-dioxa-5,7,24-triazatetracyclo[17.3.1.1^2,6.1^8,12]pentacosa-1(23),2(25),3,5,8(24),9,11,19,21-nonaene]
